From ChEMBL document CHEMBL5233217, “Modification of 7-piperazinylquinolone antibacterials to promising anticancer lead compounds: Synthesis and in vitro studies” (Eur J Med Chem, 2020)
One block for each compound: values may come before it.

What was measured:
A549 [1] = assay: Anticancer activity against human A549 cells assessed as reduction in cell viability incubated for 72 hrs by MTT assay; assay type: functional, cell-based; details: A549, 72 h
HL-60 [2] = assay: Anticancer activity against human HL-60 cells assessed as reduction in cell viability incubated for 72 hrs by MTT assay; assay type: functional, cell-based; details: HL-60, 72 h
HeLa = assay: Anticancer activity against human HeLa cells assessed as reduction in cell viability incubated for 72 hrs by MTT assay; assay type: functional, cell-based
CT26 = assay: Antitumor activity against mouse CT26 cells assessed as reduction in cell viability incubated for 4 hrs by MTT assay; assay type: functional, cell-based; details: CT26, 4 h
A549 [3] = assay: Antitumor activity against human A549 cells assessed as reduction in cell viability incubated for 4 hrs by MTT assay; assay type: functional, cell-based; details: A549, 4 h
[4] = tested on: Panel NCI-60 (60 carcinoma cell lines); assay: Anticancer activity against human Panel NCI-60 (60 carcinoma cell lines) cells assessed as cell growth inhibition incubated for 48 hrs by sulforhodamine B assay; assay type: functional
[5] = Cytotoxicity against Chinese hamster CHO cells assessed as reduction in cell viability by MTT assay; assay type: toxicity, cell-based, Cricetulus griseus
HL-60 [6] = assay: Cytotoxicity against human HL-60 cells assessed as reduction in cell viability by MTT assay; assay type: functional, cell-based
L1210 = assay: Cytotoxicity against mouse L1210 cells assessed as reduction in cell viability by MTT assay; assay type: functional, cell-based
SK-MEL3 = assay: Anticancer activity against human SK-MEL3 cells assessed as reduction in cell viability incubated for 72 hrs by MTT assay; assay type: functional, cell-based; details: SK-MEL3, 72 h
MCF7 = assay: Anticancer activity against human MCF7 cells assessed as reduction in cell viability incubated for 72 hrs by MTT assay; assay type: functional, cell-based; details: MCF7, 72 h
A-431 = assay: Anticancer activity against human A-431 cells assessed as reduction in cell viability incubated for 72 hrs by MTT assay; assay type: functional, cell-based; details: A-431, 72 h
EJ = assay: Anticancer activity against human EJ cells assessed as reduction in cell viability incubated for 72 hrs by MTT assay; assay type: functional, cell-based
KB = assay: Anticancer activity against human KB cells assessed as reduction in cell viability incubated for 72 hrs by MTT assay; assay type: functional, cell-based
SW480 = assay: Anticancer activity against human SW480 cells assessed as reduction in cell viability incubated for 72 hrs by MTT assay; assay type: functional, cell-based; details: SW480, 72 h

IC50 (A549 [1]): 0.071 µM | IC50 (HL-60 [2]): 0.043 µM | IC50 (HeLa): 0.032 µM
Compound: N=C(NS(=O)(=O)c1ccccc1Cl)N1CCN(c2cc3c(cc2F)c(=O)c(C(=O)O)cn3C2CC2)CC1

IC50 (A549 [1]): 0.071 µM | IC50 (HL-60 [2]): 0.043 µM | IC50 (HeLa): 0.032 µM
Compound: CCn1cc(C(=O)O)c(=O)c2cc(F)c(N3CCN(C(=N)NS(=O)(=O)c4ccc(C(F)(F)F)cc4)CC3)cc21

IC50 (CT26): 150 µM | IC50 (A549 [3]): 150 µM
Compound: CCn1cc(C(=O)O)c(=O)c2cc(F)c(N3CCN(CP(=S)(c4ccccc4)c4ccccc4)CC3)cc21

Compound: COc1ccc(C(=O)CN2CCN(c3cc4c(cc3F)c(=O)c(C(=O)O)cn4-c3ccc(N)cc3F)CC2)cc1
GI50 [4]: 22 µM

Compound: O=C(O)c1cn(C2CC2)c2cc(N3CCN(S(=O)(=O)c4ccc(Cl)c(Cl)c4)CC3)c(F)cc2c1=O
GI50 [4]: 2.63 µM

Compound: CCn1cc(C(=O)O)c(=O)c2cc(F)c(N3CCN(S(=O)(=O)c4ccc(Cl)cc4)CC3)cc21
GI50 [4]: 2.63 µM

Compound: COc1cc(/C=N/NC(=O)c2cn(C3CC3)c3cc(N4CCNCC4)c(F)cc3c2=O)cc(OC)c1OC
IC50 [5]: 25 µM | IC50 (HL-60 [6]): 25 µM | IC50 (L1210): 25 µM

IC50 (CT26): 150 µM | IC50 (A549 [3]): 150 µM
Compound: CCn1cc(C(=O)O)c(=O)c2cc(F)c(N3CCN(CP(=O)(c4ccccc4)c4ccccc4)CC3)cc21

IC50 (SK-MEL3): < 10 µM | IC50 (MCF7): < 10 µM | IC50 (A-431): < 10 µM | IC50 (KB): < 10 µM | IC50 (SW480): < 10 µM
Compound: CCn1cc(C(=O)O)c(=O)c2cc(F)c(N3CCN(CC(=O)c4ccc(Cl)s4)CC3)nc21
IC50 (EJ): < 10 µM

IC50 (A549 [1]): 0.071 µM | IC50 (HL-60 [2]): 0.043 µM | IC50 (HeLa): 0.032 µM
Compound: CCn1cc(C(=O)O)c(=O)c2cc(F)c(N3CCN(C(=N)NS(=O)(=O)c4ccc(C)cc4)CC3)cc21

IC50 (SK-MEL3): < 10 µM | IC50 (MCF7): < 10 µM | IC50 (A-431): < 10 µM | IC50 (KB): < 10 µM | IC50 (SW480): < 10 µM
Compound: CCn1cc(C(=O)O)c(=O)c2cc(F)c(N3CCN(C/C(=N/OC)c4ccc(Cl)s4)CC3)cc21
IC50 (EJ): < 10 µM

IC50 (SK-MEL3): < 10 µM | IC50 (MCF7): < 10 µM | IC50 (A-431): < 10 µM | IC50 (KB): < 10 µM | IC50 (SW480): < 10 µM
Compound: O=C(CN1CCN(c2cc3c(cc2F)c(=O)c(C(=O)O)cn3C2CC2)CC1)c1ccc(Cl)s1
IC50 (EJ): < 10 µM

IC50 (CT26): 150 µM | IC50 (A549 [3]): 150 µM
Compound: O=C(O)c1cn(C2CC2)c2cc(N3CCN(CP(=S)(c4ccccc4)c4ccccc4)CC3)c(F)cc2c1=O

IC50 (CT26): 150 µM | IC50 (A549 [3]): 150 µM
Compound: O=C(O)c1cn(C2CC2)c2cc(N3CCN(CP(=O)(c4ccccc4)c4ccccc4)CC3)c(F)cc2c1=O

Compound: CCn1cc(C(=O)O)c(=O)c2cc(F)c(N3CCN(CC(=O)c4ccccc4)CC3)cc21
GI50 [4]: 22 µM

IC50 (CT26): 150 µM | IC50 (A549 [3]): 150 µM
Compound: O=C(O)c1cn(C2CC2)c2cc(N3CCN(CP(c4ccccc4)c4ccccc4)CC3)c(F)cc2c1=O

IC50 (SK-MEL3): < 10 µM | IC50 (MCF7): < 10 µM | IC50 (A-431): < 10 µM | IC50 (KB): < 10 µM | IC50 (SW480): < 10 µM
Compound: CCn1cc(C(=O)O)c(=O)c2cc(F)c(N3CCN(C/C(=N/OC)c4ccc(Cl)s4)CC3)nc21
IC50 (EJ): < 10 µM

IC50 (SK-MEL3): < 10 µM | IC50 (MCF7): < 10 µM | IC50 (A-431): < 10 µM | IC50 (KB): < 10 µM | IC50 (SW480): < 10 µM
Compound: CCn1cc(C(=O)O)c(=O)c2cc(F)c(N3CCN(C/C(=N/O)c4ccc(Cl)s4)CC3)nc21
IC50 (EJ): < 10 µM

IC50 (A549 [1]): 0.071 µM | IC50 (HL-60 [2]): 0.043 µM | IC50 (HeLa): 0.032 µM
Compound: N=C(NS(=O)(=O)c1ccccc1)N1CCN(c2cc3c(cc2F)c(=O)c(C(=O)O)cn3C2CC2)CC1

Compound: CCn1cc(C(=O)O)c(=O)c2cc(F)c(N3CCN(CC(=O)c4ccc(OC)cc4)CC3)c(F)c21
GI50 [4]: 22 µM

IC50 (A549 [1]): 0.071 µM | IC50 (HL-60 [2]): 0.043 µM | IC50 (HeLa): 0.032 µM
Compound: N=C(NS(=O)(=O)c1cccc(Cl)c1)N1CCN(c2cc3c(cc2F)c(=O)c(C(=O)O)cn3C2CC2)CC1

IC50 (CT26): 150 µM | IC50 (A549 [3]): 150 µM
Compound: CCn1cc(C(=O)O)c(=O)c2cc(F)c(N3CCN(CP(=[Se])(c4ccccc4)c4ccccc4)CC3)cc21

IC50 (SK-MEL3): < 10 µM | IC50 (MCF7): < 10 µM | IC50 (A-431): < 10 µM | IC50 (KB): < 10 µM | IC50 (SW480): < 10 µM
Compound: CCn1cc(C(=O)O)c(=O)c2cc(F)c(N3CCN(C/C(=N/OCc4ccccc4)c4ccc(Cl)s4)CC3)cc21
IC50 (EJ): < 10 µM

IC50 (SK-MEL3): < 10 µM | IC50 (MCF7): < 10 µM | IC50 (A-431): < 10 µM | IC50 (KB): < 10 µM | IC50 (SW480): < 10 µM
Compound: CO/N=C(/CN1CCN(c2cc3c(cc2F)c(=O)c(C(=O)O)cn3C2CC2)CC1)c1ccc(Cl)s1
IC50 (EJ): < 10 µM

IC50 (A549 [1]): 0.071 µM | IC50 (HL-60 [2]): 0.043 µM | IC50 (HeLa): 0.032 µM
Compound: N=C(NS(=O)(=O)c1ccccc1C(F)(F)F)N1CCN(c2cc3c(cc2F)c(=O)c(C(=O)O)cn3C2CC2)CC1

Compound: CCn1cc(C(=O)O)c(=O)c2cc(F)c(N3CCN(S(=O)(=O)c4ccc(Cl)cc4Cl)CC3)cc21
GI50 [4]: 2.63 µM
